Experimental data taken from US11420995B2, “Anti-infective and anti-inflammatory compounds” (Synovo GmbH, priority 2017, dated 2022).

Assays:
[1] = tested on: Staphylococcus carnosus; test: Inhibition of growth of Staphylococcus carnosus (optical density of culture); conditions: after 9-20 h, No compound 0.887
Protocol: (§1) Activity of substances in the inhibition of growth of bacteria. Bacteria including the species Escherichia coli, Bacillus pumilus, Salmonella sp., Micrococcus luteus and Staphylococcus carnosus are cultured in appropriate media (Luria broth for all except S. canosus). Overnight cultures are mixed with fresh medium to reach an optical density at 600 nM of ca. 0.1 AU. These cultures are mixed with solutions of substances to be tested at concentrations ranging from 100 μM to 0.05 μM in a microtitre plate. The growth of the culture is monitored by measuring the optical density at various times after the addition of the inhibitor. Reduction in the rate of increase in optical density corresponds to an inhibition of bacterial growth.

[2] = tested on: Staphylococcus aureus Newman; test: Staphylococcus infection in mice (body weight, CFU recovered from kidney); type: in vivo; conditions: for Ability of mice to clear an infection by Staphylococcus aureus Newman; bacteria quantified as CFU recovered from a standard sample of kidney: FIG. 6
[3] = tested on: Salmonella typhimurium; test: Inhibition of growth of Salmonella typhimurium (optical density of culture); conditions: after 9-20 h, No compound 0.943
Protocol: as §1

[4] = tested on: mice treated with dextran sulfate (colitis); test: Dextran sulfate colitis in mice (inflammatory bowel disease model); type: in vivo, mouse (C57 BLK6 or BALBc); conditions: N=8; for Body weight and clinical score of BALBc mice at day 9 after commencing 2.5% DSS in water: FIG. 18
Description: The potential efficacy of a Compound for Inflammatory bowel disease may be modeled as follows. C57 BLK6 or BALBc mice are provided with drinking water containing 2.5% or 2.8% dextran sulfate. Animals are weighed and observed for signs of intestinal disturbance daily. Signs include diarrhea or occult blood. Compound is formulated by mixing with a solution of 0.1 up to 1% citric acid depending on concentration. Compound is provided by oral gavage daily.

[5] = tested on: Salmonella typhimurium phagocytosed by J774 murine cells; test: Intracellular killing of S. Typhimurium by mouse macrophage cellline J 774 A.1 (surviving CFU); type: cell-based; conditions: FIG. 4; compared with azithromycin
Protocol: Substances may act directly on bacteria, or they may act to promote the killing of the bacteria by phagocytes. To measure this effect, cultures murine macrophages are incubated with a test bacteria and the number of bacteria surviving are counted in terms of the viable colony forming units (CFU). The method for determining the rate of phagocytosis is as follows:
Intracellular killing of S. Typhimurium by mouse macrophage cellline J 774 A.1 • seed a monolayer of cells in 200 μl Media into the wells of a 96 well plates • incubate O/N 37° C. • remove medium and add fresh medium • add Bacteria (Salmonella typhimurium) e.g. 5 μl of 1:100 diluted O/N culture (MOI=10) (=10^8 cfu/ml) • centrifuge 10 min 800 g (2000 rpm) • incubate 20-30 minutes at 37° C. (phagocytosis) • remove media • wash 1-2× with PBS • add medium with 100 μg/ml Gentamicin, stock: 10 mg/ml (=1:100) • incubate 45′ at 37° C. • wash 2× with PBS • add fresh medium (200 μl/well) • add compounds to test • incubate 2-3 hours at 37° C. • remove medium • lyse cells with water: add 200 μl H2O incubate 10′, push a few times through 27 gauge needle using a 1 ml syringe • plate […] 1:10 dilution onto LB-agar plates (=1:100 dil)
Overnight culture of Salmonella thyphimurium=˜[…]
Overnight culture of Staphylococcus carnosus=˜5×10^9 cfu/ml MOI=50 (=5 μl of 1:10 dil. O/N culture)
MOI=Multiplicity of Infection […]

Structure (SMILES)	Absorbance of culture medium at 600 nm ([1]; Conc. 0.8 μM)	Absorbance of culture medium at 600 nm ([1]; Conc. 2 μM)	Absorbance of culture medium at 600 nm ([1]; Conc. 3 μM)	Absorbance of culture medium at 600 nm ([1]; Conc. 6 μM)	Absorbance of culture medium at 600 nm ([1]; Conc. 13 μM)	Absorbance of culture medium at 600 nm ([1]; Conc. 25 μM)	Absorbance of culture medium at 600 nm ([1]; Conc. 50 μM)	Absorbance of culture medium at 600 nm ([1]; Conc. 100 μM)	Ability of mice to clear an infection by Staphylococcus aureus Newman; bacteria quantified as CFU recovered from a standard sample of kidney [2]	Absorbance of culture medium at 600 nm ([3]; Conc. 0.8 μM)	Absorbance of culture medium at 600 nm ([3]; Conc. 2 μM)	Absorbance of culture medium at 600 nm ([3]; Conc. 3 μM)	Absorbance of culture medium at 600 nm ([3]; Conc. 6 μM)	Absorbance of culture medium at 600 nm ([3]; Conc. 13 μM)	Absorbance of culture medium at 600 nm ([3]; Conc. 25 μM)	Absorbance of culture medium at 600 nm ([3]; Conc. 50 μM)	Absorbance of culture medium at 600 nm ([3]; Conc. 100 μM)	Body weight and clinical score of BALBc mice at day 9 after commencing 2.5% DSS in water [4]	further results
CCC(=O)O[C@@H]1[C@@H](C)N(C)C[C@H](C)C[C@@](C)(O)[C@H](O[C@@H]2O[C@H](C)C[C@H](N(C)C)[C@H]2O[N+](=O)[O-])[C@@H](C)[C@H](O[C@H]2C[C@@](C)(OC)[C@@H](O)[C@H](C)O2)[C@@H](C)C(=O)O[C@H](CC)[C@@]1(C)O [Compound E-5]	0.819	0.726	0.805	0.525	0.452	0.403	0.347	0.302	decreases recovered bacteria in a dose responsive manner	0.574	0.568	0.511	0.478	0.437	0.396	0.395	0.390		Response of mice to an infection by Staphylococcus (recovery of weight) ([2]; FIG. 5): faster recovery of weight due to faster clearance of bacteria
CC[C@H]1OC(=O)[C@H](C)[C@@H](O[C@H]2C[C@@](C)(OC)[C@@H](O)[C@H](C)O2)[C@H](C)[C@@H](O[C@@H]2O[C@H](C)C[C@H](N(C)C)[C@H]2O)[C@](C)(O)C[C@@H](C)CN(C)[C@H](C)[C@@H](O)[C@]1(C)O [Azithromycin, reference compound]									decreases recovered bacteria in a dose responsive manner										
CCCCCCCCCCN(C)C1C[C@@H](C)O[C@@H](O[C@@H]2[C@@H](C)[C@H](O[C@H]3C[C@@](C)(OC)[C@@H](O)[C@H](C)O3)[C@@H](C)C(=O)O[C@H](CC)[C@@](C)(O)[C@H](O)[C@@H](C)N(C)C[C@H](C)C[C@@]2(C)O)[C@@H]1O (stereo partly shown) [Compound E-3]																		stimulate inflammation	
CCCC(=O)O[C@@H]1[C@@H](C)N(C)C[C@H](C)C[C@@](C)(O)[C@H](O[C@@H]2O[C@H](C)CC(N(C)C)[C@H]2O)[C@@H](C)[C@H](O[C@H]2C[C@@](C)(OC)[C@@H](OC(=O)CCC)[C@H](C)O2)[C@@H](C)C(=O)O[C@H](CC)[C@@]1(C)O (stereo partly shown) [Compound E-553]																		stimulate inflammation	
CCC(=O)O[C@@H]1C(N(C)C)C[C@@H](C)O[C@H]1O[C@@H]1[C@@H](C)[C@H](O[C@H]2C[C@@](C)(OC)[C@@H](OC(=O)CC)[C@H](C)O2)[C@@H](C)C(=O)O[C@H](CC)[C@@](C)(O)[C@H](OC(=O)CC)[C@@H](C)N(C)C[C@H](C)C[C@@]1(C)OC(=O)CC (stereo partly shown) [Compound E-51]																			Body weight and clinical score of BALBc mice at day 7 after commencing 2.5% DSS in water ([4]; FIG. 19, weight greater than Vehicle): protect against inflammation
CC[C@H]1OC(=O)[C@H](C)[C@@H](O[C@H]2C[C@@](C)(OC)[C@@H](O)[C@H](C)O2)[C@H](C)[C@@H](O[C@@H]2O[C@H](C)CC(N(C)C)[C@H]2O[N+](=O)[O-])[C@](C)(O)C[C@@H](C)CN(C)[C@H](C)[C@@H](OC(C)=O)[C@]1(C)O (stereo partly shown) [Compound E-2]	0.760	0.766	0815	0.626	0.542	0.456	0.425	0.395	decreases recovered bacteria in a dose responsive manner	0.452	0.441	0.410	0.382	0.621	0.314	0.168	0.251		Killing of phagocytosed Salmonella typhimurium by murine macrophages [5]: stimulates the killing of bacterial cells by macrophages; Body weight of BALBc mice at day 7 after commencing 2.5% DSS in water ([4]; FIG. 17): protects against weight loss
CCCC(=O)O[C@@H]1C(N(C)C)C[C@@H](C)O[C@H]1O[C@@H]1[C@@H](C)[C@]2(O)O[C@@]1(C)C[C@@H](C)CN(C)[C@H](C)[C@@H](O)[C@](C)(O)[C@@H](CC)OC(=O)[C@@H]2C (stereo partly shown) [Compound E-238]																		stimulate inflammation	
CC[C@H]1OC(=O)[C@H](C)[C@@H](O[C@H]2C[C@@](C)(OC)[C@@H](O)[C@H](C)O2)[C@H](C)[C@@H](O[C@@H]2O[C@H](C)CC(N(C)C)[C@H]2OC(C)=O)[C@](C)(O)C[C@@H](C)CN(C)[C@H](C)[C@@H](O[N+](=O)[O-])[C@]1(C)O (stereo partly shown) [Compound E-9]	0.765	0.737	0.830	0.752	0.677	0.426	0.522	0.545		0.300	0.272	0.327	0.348	0.382	0.395	0.319	0.221		
